Data: patent US20080161249A1, “Use of Novel Antibacterial Compounds” (SMITHKLINE BEECHAM CORPORATION, priority 2004, published 2008)
Values after ≈ are worked out from the molar mass of the structure shown. Like-named read-outs stand apart in the source and are kept apart here.

How the values were obtained:
S. aureus WCUH29 = test: MIC against S. aureus WCUH29, alone and with subinhibitory concentrations of a second agent; assay type: cell-based, Staphylococcus aureus; details: for MIC: Staphylococcus aureus, WCUH29, S. aureus WCUH29
S. aureus strain Smith = test: MIC against S. aureus strain Smith, alone and in combination; assay type: cell-based, Staphylococcus aureus; details: for MIC: Staphylococcus aureus
S. aureus strain RN4220 = test: MIC against S. aureus strain RN4220, alone and in combination; assay type: cell-based, Staphylococcus aureus; details: for MIC: Staphylococcus aureus
S. aureus strain Oxford = test: MIC against S. aureus strain Oxford, alone and in combination; assay type: cell-based, Staphylococcus aureus; details: for MIC: Staphylococcus aureus
Text: (§1) Subinhibitory Concentrations of PDF Inhibitors Decrease the MICs of Macrolides against Representative S. aureus Strains
(§2) Subinhibitory Concentrations of Macrolides Decrease the MICs of PDF Inhibitors against Representative S. aureus Strains

S. aureus strain PK1 = test: MIC against S. aureus strain PK1, alone and in combination; assay type: cell-based, Staphylococcus aureus; details: for MIC: Staphylococcus aureus
Text: as §1, §2

H. influenzae Q1 = test: MIC against H. influenzae Q1, alone and with subinhibitory concentrations of a second agent; assay type: cell-based, Haemophilus influenzae;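 note: combinations paired PDF inhibitors with macrolides, one class added below its own MIC to test whether the MIC of the other class dropped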
[1] = tested on: representative S. aureus strains; test: MIC against representative S. aureus strains, summary over strains; assay type: cell-based, Staphylococcus aureus
Text: as §1, §2

[2] = S. aureus, text summary of Example 4
[3] = no second agent, read-out: MIC, single agent
[4] = single agent, read-out: MIC, Compound (1a) alone
[5] = with ¼ MIC of Tylosin, read-out: MIC, Compound (1a) with ¼ MIC of Tylosin
[6] = with ½ MIC of Tylosin, read-out: MIC, Compound (1a) with ½ MIC of Tylosin
[7] = H. influenzae Q1, +0.25 ug/m Azithromycin
[8] = H. influenzae Q1, +0.5 ug/mL Azithromycin
[9] = S. aureus WCUH29, +0.5 ug/mL Compound (1a)
[10] = S. aureus WCUH29, +1 ug/mL Compound (1a)
[11] = macrolide alone, read-out: MIC, −Compound (1a)
[12] = H. influenzae Q1, +0.5 ug/mL Compound (1a)
[13] = H. influenzae Q1, +1 ug/mL Compound (1a)

CCCCC[C@H](CN(O)C=O)C(=O)NNc1nccc(C(F)(F)F)n1 [Compound (1a), N-hydroxy-N-{(R)-2-[N′-(4-trifluoromethyl-pyrimidin-2-yl)-hydrazinocarbonyl]-heptyl}-formamide]
Compound (1a) fold decrease MIC (S. aureus WCUH29; S. aureus WCUH29, +Azithromycin 0.25 μg/ml {¼ × MIC}): [4] fold | Compound (1a) fold decrease MIC (S. aureus WCUH29; S. aureus WCUH29, +Azithromycin 0.5 μg/ml {½ × MIC}): [8] fold | Compound (1a) fold decrease MIC (S. aureus WCUH29; S. aureus WCUH29, +Ciprofloxacin 0.06 μg/ml {¼ × MIC}): [0] fold | Compound (1a) fold decrease MIC (S. aureus WCUH29; S. aureus WCUH29, +Ciprofloxacin […] {½ × MIC}): [0] fold | Compound (1a) fold decrease MIC (S. aureus WCUH29; S. aureus WCUH29, +Erythromycin 0.06 μg/ml {¼ × MIC}): [4] fold | Compound (1a) fold decrease MIC (S. aureus WCUH29; S. aureus WCUH29, +Erythromycin […] {½ × MIC}): [8] fold | Compound (1a) fold decrease MIC (S. aureus WCUH29; S. aureus WCUH29, +Tylosin 0.25 μg/ml {¼ × MIC}): [4] fold | Compound (1a) fold decrease MIC (S. aureus WCUH29; S. aureus WCUH29, +Tylosin 0.5 μg/ml {½ × MIC}): [32] fold | decrease of MIC by subinhibitory concentrations of azithromycin (S. aureus WCUH29; [2]): 4-8 fold | decrease of MIC by subinhibitory concentrations of erythromycin (S. aureus WCUH29; [2]): 4-8 fold | decrease of MIC by subinhibitory concentrations of tylosin (S. aureus WCUH29; [2]): 4-32 fold | effect of subinhibitory concentrations of ciprofloxacin on antibacterial potency (S. aureus WCUH29; [2]): no effect | MIC (S. aureus WCUH29; +Azithromycin 0.25 μg/ml {¼ × MIC}, read-out: Compound (1a) MIC): 0.5 µg/mL (≈ 1.38 µM) | MIC (S. aureus WCUH29; +Azithromycin 0.5 μg/ml {½ × MIC}, read-out: Compound (1a) MIC): 0.25 µg/mL (≈ 0.688 µM) | MIC (S. aureus WCUH29; +Ciprofloxacin 0.06 μg/ml {¼ × MIC}, read-out: Compound (1a) MIC): 2 µg/mL (≈ 5.5 µM) | MIC (S. aureus WCUH29; +Ciprofloxacin […] {½ × MIC}, read-out: Compound (1a) MIC): 2 µg/mL (≈ 5.5 µM) | MIC (S. aureus WCUH29; +Erythromycin 0.06 μg/ml {¼ × MIC}, read-out: Compound (1a) MIC): 0.5 µg/mL (≈ 1.38 µM) | MIC (S. aureus WCUH29; +Erythromycin […] {½ × MIC}, read-out: Compound (1a) MIC): 0.25 µg/mL (≈ 0.688 µM) | MIC (S. aureus WCUH29; +Tylosin 0.25 μg/ml {¼ × MIC}, read-out: Compound (1a) MIC): 0.5 µg/mL (≈ 1.38 µM) | MIC (S. aureus WCUH29; +Tylosin 0.5 μg/ml {½ × MIC}, read-out: Compound (1a) MIC): 0.06 µg/mL (≈ 0.165 µM) | MIC (S. aureus WCUH29; [3]): 2 µg/mL (≈ 5.5 µM) | MIC (S. aureus strain Smith; [4]): 4 µg/mL | MIC (S. aureus strain Smith; [5]): 0.5 µg/mL | MIC (S. aureus strain Smith; [6]): 0.125 µg/mL | fold decrease MIC, Compound (1a) with ¼ MIC of Tylosin (S. aureus strain Smith; with ¼ MIC of Tylosin): [8] fold | fold decrease MIC, Compound (1a) with ½ MIC of Tylosin (S. aureus strain Smith; with ½ MIC of Tylosin): [32] fold | MIC (S. aureus strain RN4220; [4]): 4 µg/mL | MIC (S. aureus strain RN4220; [5]): 0.25 µg/mL | MIC (S. aureus strain RN4220; [6]): 0.03 µg/mL | fold decrease MIC, Compound (1a) with ¼ MIC of Tylosin (S. aureus strain RN4220; with ¼ MIC of Tylosin): [16] fold | fold decrease MIC, Compound (1a) with ½ MIC of Tylosin (S. aureus strain RN4220; with ½ MIC of Tylosin): [128] fold | MIC (S. aureus strain Oxford; [4]): 2 µg/mL | MIC (S. aureus strain Oxford; [5]): 1 µg/mL | MIC (S. aureus strain Oxford; [6]): 0.25 µg/mL | fold decrease MIC, Compound (1a) with ¼ MIC of Tylosin (S. aureus strain Oxford; with ¼ MIC of Tylosin): [2] fold | fold decrease MIC, Compound (1a) with ½ MIC of Tylosin (S. aureus strain Oxford; with ½ MIC of Tylosin): [8] fold | MIC (S. aureus strain PK1; [4]): 0.5 µg/mL | MIC (S. aureus strain PK1; [5]): 0.06 µg/mL | MIC (S. aureus strain PK1; [6]): 0.016 µg/mL | fold decrease MIC, Compound (1a) with ¼ MIC of Tylosin (S. aureus strain PK1; with ¼ MIC of Tylosin): [8] fold | fold decrease MIC, Compound (1a) with ½ MIC of Tylosin (S. aureus strain PK1; with ½ MIC of Tylosin): [32] fold | MIC, antibiotic with 0.25 ug/m (¼ MIC) of Azithromycin (H. influenzae Q1; [7]): 1 µg/mL | fold decrease MIC, antibiotic with 0.25 ug/m (¼ MIC) of Azithromycin (H. influenzae Q1; [7]): [2] fold | MIC, antibiotic with 0.5 ug/mL (½ MIC) of Azithromycin (H. influenzae Q1; [8]): 0.5 µg/mL | fold decrease MIC, antibiotic with 0.5 ug/mL (½ MIC) of Azithromycin (H. influenzae Q1; [8]): [4] fold | MIC, antibiotic alone (H. influenzae Q1; H. influenzae Q1, single agent (Example 8)): 2 µg/mL (≈ 5.5 µM) | decrease of MIC by subinhibitory concentrations of tylosin ([1]; Example 6): 2-128 fold

CC[C@H]1OC(=O)C[C@@H](O)[C@H](C)[C@@H](O[C@@H]2O[C@H](C)[C@@H](O[C@H]3C[C@@](C)(O)[C@@H](O)[C@H](C)O3)[C@H](N(C)C)[C@H]2O)[C@@H](CC=O)C[C@@H](C)C(=O)/C=C/C(C)=C/[C@@H]1CO[C@@H]1O[C@H](C)[C@@H](O)[C@@H](OC)[C@H]1OC [Tylosin, tylosin]
MIC, antibiotic with 0.5 ug/mL (¼ MIC) of Compound (1a) (S. aureus WCUH29; [9]): 0.25 µg/mL | fold decrease MIC, antibiotic with 0.5 ug/mL (¼ MIC) of Compound (1a) (S. aureus WCUH29; [9]): [4] fold | MIC, antibiotic with 1 ug/mL (½ MIC) of Compound (1a) (S. aureus WCUH29; [10]): 0.125 µg/mL | fold decrease MIC, antibiotic with 1 ug/mL (½ MIC) of Compound (1a) (S. aureus WCUH29; [10]): [8] fold | MIC, antibiotic alone (S. aureus WCUH29; S. aureus WCUH29, single agent): 1 µg/mL (≈ 1.09 µM) | decrease of MIC by subinhibitory concentrations of Compound (1a) (S. aureus WCUH29; S. aureus, Example 3): 4-8 fold | MIC (S. aureus WCUH29; [3]): 1 µg/mL (≈ 1.09 µM) | MIC (S. aureus strain Smith; [11]): 1 µg/mL | MIC, +Compound (1a) [¼ × MIC] (S. aureus strain Smith; with ¼ × MIC of Compound (1a)): 0.25 µg/mL | fold decrease MIC, +Compound (1a) [¼ × MIC] (S. aureus strain Smith; with ¼ × MIC of Compound (1a)): [4] fold | MIC, +Compound (1a) [½ × MIC] (S. aureus strain Smith; with ½ × MIC of Compound (1a)): 0.125 µg/mL | fold decrease MIC, +Compound (1a) [½ × MIC] (S. aureus strain Smith; with ½ × MIC of Compound (1a)): [8] fold | MIC (S. aureus strain RN4220; [11]): 1 µg/mL | fold decrease MIC, +Compound (1a) [¼ × MIC] (S. aureus strain RN4220; with ¼ × MIC of Compound (1a)): [8] fold | MIC, +Compound (1a) [½ × MIC] (S. aureus strain RN4220; with ½ × MIC of Compound (1a)): 0.06 µg/mL | fold decrease MIC, +Compound (1a) [½ × MIC] (S. aureus strain RN4220; with ½ × MIC of Compound (1a)): [16] fold | MIC (S. aureus strain Oxford; [11]): 0.5 µg/mL | MIC, +Compound (1a) [¼ × MIC] (S. aureus strain Oxford; with ¼ × MIC of Compound (1a)): 0.06 µg/mL | fold decrease MIC, +Compound (1a) [¼ × MIC] (S. aureus strain Oxford; with ¼ × MIC of Compound (1a)): [8] fold | MIC, +Compound (1a) [½ × MIC] (S. aureus strain Oxford; with ½ × MIC of Compound (1a)): 0.03 µg/mL | fold decrease MIC, +Compound (1a) [½ × MIC] (S. aureus strain Oxford; with ½ × MIC of Compound (1a)): [16] fold | MIC (S. aureus strain PK1; [11]): 2 µg/mL | MIC, +Compound (1a) [¼ × MIC] (S. aureus strain PK1; with ¼ × MIC of Compound (1a)): 0.25 µg/mL | fold decrease MIC, +Compound (1a) [¼ × MIC] (S. aureus strain PK1; with ¼ × MIC of Compound (1a)): [8] fold | MIC, +Compound (1a) [½ × MIC] (S. aureus strain PK1; with ½ × MIC of Compound (1a)): 0.06 µg/mL | fold decrease MIC, +Compound (1a) [½ × MIC] (S. aureus strain PK1; with ½ × MIC of Compound (1a)): [32] fold | MIC, antibiotic with 0.5 ug/mL (¼ MIC) of Compound (1a) (H. influenzae Q1; [12]): 8 µg/mL | fold decrease MIC, antibiotic with 0.5 ug/mL (¼ MIC) of Compound (1a) (H. influenzae Q1; [12]): [2] fold | MIC, antibiotic with 1 ug/mL (½ MIC) of Compound (1a) (H. influenzae Q1; [13]): 4 µg/mL | fold decrease MIC, antibiotic with 1 ug/mL (½ MIC) of Compound (1a) (H. influenzae Q1; [13]): [4] fold | MIC, antibiotic alone (H. influenzae Q1; H. influenzae Q1, single agent (Example 7)): 16 µg/mL (≈ 17.5 µM) | decrease of MIC by subinhibitory concentrations of Compound (1a) (H. influenzae Q1; H. influenzae, text summary of Example 7): 2-4 fold | decrease of MIC by subinhibitory concentrations of Compound (1a) ([1]; text summary of Example 5): 4-32 fold
